From ChEMBL document CHEMBL1154180, “Pyrazole-based arylalkyne cathepsin S inhibitors. Part II: optimization of cellular potency” (Bioorg Med Chem Lett, 2009)

Key:
[1] = target: T1, Cathepsin S (Homo sapiens, UniProt P25774); assay: Inhibition of human recombinant cathepsin S expressed in baculovirus by FRET assay
[2] = target: T1, Cathepsin S; assay: Inhibition of cathepsin S in human JY cells assessed as invariant chain li degradation by Western blotting; type: cell-based

T1 sequence (P25774 whole entry): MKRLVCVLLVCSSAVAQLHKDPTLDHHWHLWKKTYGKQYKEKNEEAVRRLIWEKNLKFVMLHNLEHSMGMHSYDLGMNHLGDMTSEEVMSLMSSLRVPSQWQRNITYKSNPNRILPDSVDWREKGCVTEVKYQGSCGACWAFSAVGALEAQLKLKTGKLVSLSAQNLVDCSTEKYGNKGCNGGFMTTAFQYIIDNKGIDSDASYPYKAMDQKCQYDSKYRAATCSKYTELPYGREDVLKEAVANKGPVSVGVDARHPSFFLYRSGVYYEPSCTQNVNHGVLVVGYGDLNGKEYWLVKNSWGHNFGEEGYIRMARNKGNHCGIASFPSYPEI

Row | IC50 [1] [nM] | IC50 [2] [nM] | SMILES
1 | 380 | > 10000 | CS(=O)(=O)N1CCc2c(c(-c3ccc(Cl)c(C#Cc4ccc(Cl)cc4)c3)nn2CC(O)CN2CCNCC2)C1 (centres undefined)
2 | 1300 | > 10000 | CNCc1ccc(C#Cc2cc(-c3nn(CCCN4CCOCC4)c4c3CN(S(C)(=O)=O)CC4)ccc2Cl)cc1
3 | 150 | > 10000 | CC(C)(C)OC(=O)N1CCN(CC(O)Cn2nc(-c3ccc(Cl)c(C#Cc4ccc(Cl)cc4)c3)c3c2CCN(S(C)(=O)=O)C3)CC1 (centres undefined)
4 |  | > 10000 | CS(=O)(=O)N1CCc2c(c(-c3ccc(Cl)c(C#Cc4ccc(Cl)cc4)c3)nn2CC(O)CN2CCC(C(N)=O)CC2)C1 (centres undefined)
5 |  | > 10000 | COC(=O)C1CCN(CC(O)Cn2nc(-c3ccc(Cl)c(C#Cc4ccc(Cl)cc4)c3)c3c2CCN(S(C)(=O)=O)C3)CC1 (centres undefined)
6 | 160 | > 10000 | CS(=O)(=O)N1CCc2c(c(-c3ccc(Cl)c(C#Cc4ccc(CNS(=O)(=O)c5ccccc5)cc4)c3)nn2CCCN2CCOCC2)C1
7 |  | > 10000 | CS(=O)(=O)N1CCc2c(c(-c3ccc(Cl)c(C#Cc4ccc(CNC(=O)c5ccccc5)cc4)c3)nn2CCCN2CCOCC2)C1
8 |  | 1800 | CS(=O)(=O)N1CCc2c(c(-c3ccc(Cl)c(C#Cc4ccc(CNCc5ccc(Cl)c(Cl)c5)cc4)c3)nn2CCCN2CCOCC2)C1
9 |  | 1700 | CS(=O)(=O)N1CCc2c(c(-c3ccc(Cl)c(C#Cc4ccc(CN[C@@H](CO)c5ccccc5)cc4)c3)nn2CCCN2CCOCC2)C1
10 |  | 5700 | CS(=O)(=O)N1CCc2c(c(-c3ccc(Cl)c(C#Cc4ccc(CNCCc5ccccc5)cc4)c3)nn2CCCN2CCOCC2)C1
11 |  | 1100 | Cc1ccc(CNCc2ccc(C#Cc3cc(-c4nn(CCCN5CCOCC5)c5c4CN(S(C)(=O)=O)CC5)ccc3Cl)cc2)cc1
12 | 140 | 1500 | CS(=O)(=O)N1CCc2c(c(-c3ccc(Cl)c(C#Cc4ccc(CNCc5ccc(Cl)cc5)cc4)c3)nn2CCCN2CCOCC2)C1
13 | 420 | 4200 | CS(=O)(=O)N1CCc2c(c(-c3ccc(Cl)c(C#Cc4ccc(CNCc5ccccc5)cc4)c3)nn2CCCN2CCOCC2)C1
14 | 600 | > 10000 | CN(Cc1ccccc1)Cc1ccc(C#Cc2cc(-c3nn(CCCN4CCOCC4)c4c3CN(S(C)(=O)=O)CC4)ccc2Cl)cc1
15 |  | 820 | COc1ccc(CNCc2ccc(C#Cc3cc(-c4nn(CCCN5CCOCC5)c5c4CN(S(C)(=O)=O)CC5)ccc3Cl)cc2)cc1
16 |  | > 10000 | COC(=O)[C@@H](NCc1ccc(C#Cc2cc(-c3nn(CCCN4CCOCC4)c4c3CN(S(C)(=O)=O)CC4)ccc2Cl)cc1)c1ccccc1
17 | 140 | > 10000 | CS(=O)(=O)N1CCc2c(c(-c3ccc(Cl)c(C#Cc4ccc(Cl)cc4)c3)nn2CC(O)CN2CCOCC2)C1 (centres undefined)
18 |  | > 10000 | CS(=O)(=O)N1CCc2c(c(-c3ccc(Cl)c(C#Cc4ccc(Cl)cc4)c3)nn2CC(O)CN2CCCCC2)C1 (centres undefined)
19 | 490 | 10000 | CS(=O)(=O)N1CCc2c(c(-c3ccc(Cl)c(C#Cc4ccc(CN)cc4)c3)nn2CCCN2CCOCC2)C1
20 | 100 | > 10000 | COC(=O)[C@H](NCc1ccc(C#Cc2cc(-c3nn(CCCN4CCOCC4)c4c3CN(S(C)(=O)=O)CC4)ccc2Cl)cc1)c1ccccc1
21 |  | > 10000 | CC(C)(C)OC(=O)N1CCC(C2CCN(C[C@H](O)Cn3nc(-c4ccc(Cl)c(C#Cc5ccc(Cl)cc5)c4)c4c3CCN(S(C)(=O)=O)C4)CC2)CC1
22 |  | 10000 | CC(=O)N1CCC(C2CCN(C[C@H](O)Cn3nc(-c4ccc(Cl)c(C#Cc5ccc(Cl)cc5)c4)c4c3CCN(S(C)(=O)=O)C4)CC2)CC1
23 |  | 200 | CS(=O)(=O)N1CCc2c(c(-c3ccc(Cl)c(C#Cc4ccc(Cl)cc4)c3)nn2C[C@@H](O)CN2CCC(C3CCNCC3)CC2)C1
24 |  | 720 | CN1CCC(C2CCN(C[C@H](O)Cn3nc(-c4ccc(Cl)c(C#Cc5ccc(Cl)cc5)c4)c4c3CCN(S(C)(=O)=O)C4)CC2)CC1
